What was measured:
Assay in all cases: relative viability (nuclei count vs DMSO), 5 days (fraction); higher = more cells survive
[1] = compound: C/C(=N\NC(=S)N1CCC1)/C2=CC=CC=N2 + Cc1nc(NC(=O)N2CCC[C@H]2C(N)=O)sc1-c1ccnc(C(C)(C)C(F)(F)F)c1 [Alpelisib] (partner 2 µM)
Outline: (§1)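 Lung cancer cell lines were seeded in 1536-well plates and dosed by pin tool the next day, with either a single drug or a fixed anchor-drug dose combined with five library-drug doses (not always all listed) spaced in √10 steps. Five days later, one step fixed the cells and stained their nuclei (final 0.05% Triton X-100, 1% formaldehyde, 1 ug/ml Hoechst), and nuclei were counted on 4× images. Relative viability is the nuclei count in treated wells divided by the count in vehicle wells, and each value is the median of duplicate plates.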

[2] = compound: C/C(=N\NC(=S)N1CCC1)/C2=CC=CC=N2 + O=C(CCCCCCC(=O)Nc1ccccc1)NO [Vorinostat] (partner 1 µM)
Outline: as §1

[3] = compound: C/C(=N\NC(=S)N1CCC1)/C2=CC=CC=N2 + C[C@]1(O)C[C@@H](c2nc(-c3ccc4ccc(-c5ccccc5)nc4c3)c3c(N)nccn32)C1 [Linsitinib] (partner 1 µM)
Outline: as §1

[4] = compound: C/C(=N\NC(=S)N1CCC1)/C2=CC=CC=N2 + CC1(C)CCC(c2ccc(Cl)cc2)=C(CN2CCN(c3ccc(C(=O)NS(=O)(=O)c4ccc(N[C@H](CCN5CCOCC5)CSc5ccccc5)c(S(=O)(=O)C(F)(F)F)c4)cc3)CC2)C1 [Navitoclax] (partner 0.5 µM)
Outline: as §1

Row | Cell Line | relative viability ([1]; first compound 0.05 µM) | relative viability ([1]; first compound 0.1581 µM) | relative viability ([1]; first compound 0.5 µM) | relative viability ([1]; first compound 1.581 µM) | relative viability ([1]; first compound 5 µM) | relative viability ([2]; first compound 0.05 µM) | relative viability ([2]; first compound 0.1581 µM) | relative viability ([2]; first compound 0.5 µM) | relative viability ([2]; first compound 1.581 µM) | relative viability ([2]; first compound 5 µM) | relative viability ([3]; first compound 0.05 µM) | relative viability ([3]; first compound 0.1581 µM) | relative viability ([3]; first compound 0.5 µM) | relative viability ([3]; first compound 1.581 µM) | relative viability ([3]; first compound 5 µM) | relative viability ([4]; first compound 0.05 µM) | relative viability ([4]; first compound 0.1581 µM) | relative viability ([4]; first compound 0.5 µM) | relative viability ([4]; first compound 1.581 µM) | relative viability ([4]; first compound 5 µM)
1 | IA-LM | 0.0645 | 0.0816 | 0.0594 | 0.0596 | 0.0781 | 0.0691 | 0.0691 | 0.0591 | 0.059 | 0.051 | 0.0757 | 0.0841 | 0.0585 | 0.0612 | 0.0387 | 0.0776 | 0.062 | 0.0799 | 0.0503 | 0.0417
2 | H3255 | 0.242 | 0.323 | 0.221 | 0.181 | 0.214 | 0.334 | 0.288 | 0.179 | 0.274 | 0.289 | 0.278 | 0.269 | 0.276 | 0.197 | 0.21 | 0.103 | 0.123 | 0.101 | 0.094 | 0.148
3 | LOU-NH91 | 0.485 | 0.442 | 0.407 | 0.382 | 0.424 | 0.577 | 0.588 | 0.566 | 0.388 | 0.374 | 0.466 | 0.509 | 0.424 | 0.407 | 0.422 | 0.275 | 0.308 | 0.253 | 0.225 | 0.278
4 | NCI-H3122 | 0.154 | 0.133 | 0.193 | 0.196 | 0.192 | 0.111 | 0.077 | 0.106 | 0.121 | 0.103 | 0.145 | 0.143 | 0.169 | 0.246 | 0.221 | 0.132 | 0.137 | 0.156 | 0.247 | 0.216
5 | PC-3 [JPC-3] | 0.556 | 1.03 | 0.341 | 0.282 | 0.208 | 0.338 | 0.436 | 0.357 | 0.269 | 0.196 | 0.647 | 0.973 | 0.469 | 0.313 | 0.311 | 0.42 | 0.855 | 0.281 | 0.253 | 0.285
6 | NCI-H1651 | 0.149 | 0.112 | 0.138 | 0.0797 | 0.0683 | 0.116 | 0.116 | 0.109 | 0.0595 | 0.0665 | 0.131 | 0.126 | 0.122 | 0.0894 | 0.0655 | 0.0866 | 0.0844 | 0.0783 | 0.0702 | 0.081
7 | NCI-H2087 | 0.24 | 0.196 | 0.246 | 0.141 | 0.151 | 0.145 | 0.0717 | 0.14 | 0.0948 | 0.098 | 0.305 | 0.37 | 0.301 | 0.244 | 0.178 | 0.248 | 0.212 | 0.185 | 0.146 | 0.18

— the supplement of paper PMC10307832
